# Assay results from patent publication US10507214B2 (Druggability Technologies IP Holdco Limited, priority 2016, dated 2019).
# Like-named read-outs stand apart in the source and are kept apart here.
# Key:
# [1] = Apparent solubility by UV-VIS spectroscopy after 100 nm filtration; format: physicochemical; conditions: thermodynamic from solid; redispersed at 2 mg/mL in ultrapurified water, room temperature
# From the text: The resulting solutions were filtered by 100 nm disposable syringe filter.
# PAMPA permeability = format: in vitro ADME; conditions: pH 7, in water, FaSSIF and FeSSIF
# [2] = In-vivo PK test in beagle dogs; conditions: oral, dispersed granulates, beagle dogs following a high-fat meal
# [3] = cited from earlier work
# [4] = healthy subjects, within the clinical dose range; cited from earlier work
# [5] = cited from earlier work; remark: listed apart in the source
# [6] = single dose of 200 mg of current formulation; cited from earlier work
# [7] = single oral dose of radiolabeled drug
smiles,measurement,setting,value
Cc1ccc(-c2cc(C(F)(F)F)nn2-c2ccc(S(N)(=O)=O)cc2)cc1 [crystalline Celecoxib (micronized)],solubility,[1],2.85 µg/mL
same,Papp at 4 h,PAMPA permeability,< 0.2 ×10⁻⁶ cm/s
same,Tmax,"[2]; dog, plasma, 5 mg/kg",2 h
same,t250 ng/ml,[2],45 min
"Cc1ccc(-c2cc(C(F)(F)F)nn2-c2ccc(S(N)(=O)=O)cc2)cc1 [Celecoxib, 4-[5-(4-methylphenyl)-3-(trifluoromethyl)-1H-pyrazol-1-yl] benzenesulfonamide]",time of peak plasma levels,[3]; after an oral dose,approximately 3 hrs
same,effective half-life,[3]; fasted conditions,approximately 11 hours
same,dose proportionality of Cmax and AUC,"[3]; fasting conditions, up to 200 mg BID",roughly dose-proportional
same,"overall systemic exposure (AUC), intact capsule versus capsule contents sprinkled on applesauce",[3]; healthy adult volunteers,equivalent
same,apparent plasma clearance (CL/F),[3]; in vivo,about 500 mL/min
same,unchanged drug recovered in the urine and feces,[3]; in vivo,< 3%
same,steady-state conditions reached,[3]; multiple dosing,≤ 5 days
same,time of peak plasma levels,"[3]; single dose of 200 mg of current formulation, oral",3 h
same,carboxylic acid metabolite in urine and feces,[3]; [7],73 % of dose
same,dose excreted in the feces,[3]; [7],approximately 57%
same,dose excreted into the urine,[3]; [7],~27%
same,protein bound,[4],~97%
same,solubility in chloroform,[5]; chloroform,soluble
same,solubility in methanol,[5]; methanol,soluble
same,solubility in water,[5]; water,insoluble
same,onset of pain relief,[6],≥ 1 h
